Experimental findings from PMC6736633 (Bioorganic & medicinal chemistry letters, 2019) are described below.

The test system of the experiment is Mycobacterium tuberculosis (Mtb) H37Rv. The experiment is described as follows: Mtb luminescence assay. To be noted: for relative Mtb signal / reduction in Mtb signal (in words): 20 μM. The format is cell-based.

For `COc1cc2nccc(Nc3ccc(OCc4cccc(F)c4)c(Cl)c3)c2cc1OC` [Compound 28], the “relative Mtb signal” value was 10%.

Take `CS(=O)(=O)CCNCc1ccc(-c2ccc3ncnc(Nc4ccc(OCc5cccc(F)c5)c(Cl)c4)c3c2)o1` [Lapatinib]: the “relative Mtb signal” value was “below 10%”.

Regarding `COc1cc2nccc(Nc3ccc(NC(C)=O)cc3)c2cc1OC` [Compound 31], for the setting “across tested concentrations up to 20 μM”, the “effect on Mtb (in words)” value is “no effect”.

For `C#Cc1cccc(Nc2ncnc3cc(OCCOC)c(OCCOC)cc23)c1` [Erlotinib], for the setting “plateau of effect”, the “Mtb signal at plateau” value is reported as “approximately 70%”.

`COc1ccc2c(Nc3ccc(NC(=O)c4ccc(C)cc4)c(O)c3)ccnc2c1` [Compound 33]: the “reduction in Mtb signal (in words)” value is reported as “no reduction”.

In the case of `COc1ccc2nccc(Nc3ccc(NC(=O)c4ccc(C)cc4)c(O)c3)c2c1` [Compound 32], the “reduction in Mtb signal (in words)” value is given as “no reduction”.
